Reference: ChEMBL document CHEMBL1133802, “N,N'-bis[4-(N-alkylamidino)phenyl]homopiperazines as anti-Pneumocystis carinii agents” (2001)

How the values were obtained:
[1] = tested on: Pneumocystis carinii; test: Anti-P. carinii activity determined as change in number of Pneumocystis carinii trophozoites from day 1 through day 5 in culture at 1 uM; format: functional
[2] = tested on: Pneumocystis carinii; test: Percent of control growth of Pneumocystis carinii trophozoites was determined; format: functional; set-up: concentration or dose not given beside the values
[3] = tested on: Nucleic Acid; test: Binding affinity for calf thymus DNA measured as change in melting temperature; format: nucleic-acid assay; details: Bos taurus
[4] = Binding affinity for Poly (dA-dT) measured as change in melting temperature
[5] = tested on: Pneumocystis carinii; test: Anti-P. carinii activity determined as change in number of Pneumocystis carinii trophozoites from day 1 through day 7 in culture at 1 uM; format: functional

ΔTm [3] [°C]	ΔTm [4] [°C]	Structure (SMILES)	Change in No. of trophozoites x 10E-5 [1]	Growth [2] [%]	Change in No. of trophozoites x 10E-5 [5]
15	23.1	N=C(N)c1ccc(N2CCCN(c3ccc(C(=N)N)cc3)CC2)cc1	-3.32	<0	
15.5	21.3	c1cc(N2CCCN(c3ccc(C4=NCCCN4)cc3)CC2)ccc1C1=NCCCN1		32	10.73
15.3	23.6	N=C(NC1CC1)c1ccc(N2CCCN(c3ccc(C(=N)NC4CC4)cc3)CC2)cc1		33	10.92
17.9	26.5	N=C(NC1CCCC1)c1ccc(N2CCCN(c3ccc(C(=N)NC4CCCC4)cc3)CC2)cc1		103	34.32

The next lines start with the compound.

Structure (SMILES)	ΔTm [3] [°C]	ΔTm [4] [°C]	Change in No. of trophozoites x 10E-5 [1]	Growth [2] [%]	Change in No. of trophozoites x 10E-5 [5]
CC(C)/N=C(\N)c1ccc(N2CCCN(c3ccc(/C(N)=N/C(C)C)cc3)CC2)cc1	13.8	20		61	20.2
N=C(N)c1ccc(OCCCCCOc2ccc(C(=N)N)cc2)cc1 [PENTAMIDINE]	11.1	20.6	-3.98	<0	
COc1cc(Cc2cnc(N)nc2N)cc(OC)c1OC.Cc1cc(NS(=O)(=O)c2ccc(N)cc2)no1 [CO-TRIMOXAZOLE]				<0	
N=C(NCCCO)c1ccc(N2CCCN(c3ccc(/C(N)=N/CCCO)cc3)CC2)cc1	17.4	23.6		105	34.79
CCCCNC(=N)c1ccc(N2CCCN(c3ccc(C(=N)NCCCC)cc3)CC2)cc1	11.8	13.3		58	19.19
CC(C)(C)/N=C(\N)c1ccc(N2CCCN(c3ccc(/C(N)=N/C(C)(C)C)cc3)CC2)cc1	4.1	7.4		65	21.57
N=C(NCCO)c1ccc(N2CCCN(c3ccc(/C(N)=N/CCO)cc3)CC2)cc1	11.1	14.7		101	33.62
